Structures can show the parent of a compound that is named as a salt.
Key:
physchem [1] = format: physicochemical; conditions: thermodynamic from solid, visual
Experimental: (§1) An aliquot of 2.5 mg cholecalciferol and 2.5 mg cholecalciferol phosphate disodium salt prepared according to Example 1 were weighed into glass vials and 100 μL aliquots of the test solvents with different dielectric constants; water, MeOH:water (90:10), ethylene glycol, methanol (MeOH), propylene glycol (PG), ethanol (EtOH), poly(ethylene glycol) (PEG-400), and mineral oil were added until the sample was fully dissolved visually. A precise determination of the solubility was undertaken using high-performance liquid chromatography (HPLC). In the HPLC solubility studies an excess amount of cholecalciferol and cholecalciferol phosphate was added into 2 mL of each test solvent; water, MeOH:water (90:10), MeOH, and PG, EtOH and mineral oil. The solutions were left stirring overnight at room temperature, (RT), 22° C. The saturation of the solutions was confirmed by the visual appearance of crystals and the drug suspensions were filtered through 0.2 μm syringe filters, diluted, and the concentration of each sample was assessed using the HPLC method detailed below.

[2] = design: species or system porcine
Experimental: To verify the percentage of drug that could be recovered from each layer of the skin, each layer was isolated for a 2.19±0.21 cm^2 piece of skin, the drug was spiked into each layer, it was incubated and then recovered. For the SC tape stripping as described above was used to isolate the skin layer. A total of 20 pieces of tape were used to remove the SC and these strips were added into sample bottles. The epidermis was removed from the dermis, cut into small pieces, and placed into bottles. The test solutions were spiked (500 μL) into a sample bottle containing the SC and (200 μL) into the sample bottles containing the epidermis and dermis. The samples containing the spiked drugs were left for 1 h for the drugs to absorb into the tissues. After the 1 h incubation period, 10 mL of extraction fluid (PG:EtOH, 50:50 for cholecalciferol and MeOH:water, 90:10 for cholecalciferol phosphate) was added into SC, and 2 mL of extraction fluid was added into epidermis and dermis then incubated in a shaking water bath overnight at 32° C. The solutions with both epidermis and dermis were then homogenised by Ultra Turrax for 1 min and filtered using 0.2 μm syringe filters and analysed by HPLC method.

in vitro = in vitro ADME, porcine; conditions: for total penetration into / deposited in the skin: vehicle 100% PG, 0.25 mm porcine skin
Experimental: Donor solutions (2.5 mg/mL, 100,000 IU), which is an infinite dose, containing cholecalciferol and cholecalciferol phosphate disodium prepared according to Example 1, were compared to PG:EtOH (50:50) for cholecalciferol and 100% water for cholecalciferol phosphate.
The Franz diffusion cell was used to investigate the permeation of cholecalciferol and cholecalciferol phosphate through porcine skin. Fresh white adult porcine ears were obtained and any damaged ears were discarded. The ears were removed from the carcass after hair removal. The ears were washed with deionised water, the residual water on the skin surface was immediately removed by blotting with a tissue, visible hairs were trimmed carefully, and the ears were stored at −20° C. for no longer than 30 days until required. On the day of the experiment the skin was defrosted, and the subcutaneous fat was removed using a scalpel. The tissue was cut into the appropriate size sections (0.25 mm thick, 2.19±0.21 cm^2) to be mounted with the stratum corneum (SC) facing the donor compartment between donor and receiver compartments of Franz diffusion cells. The pieces of skins were sealed between the two compartments using parafilm, and 12 mm magnetic follows was placed into the receiver compartment. The receiver compartment in the Franz diffusion cell was filled with 100% PG for cholecalciferol; and a 1:1 mixture of PG: (MeOH:PBS ([…]), 90:10) for cholecalciferol phosphate (9.23±0.23 mL). The cell sealing was confirmed by cell inversion and monitoring solvent back diffusion. Sink conditions were maintained throughout the transport assays. The temperature of the Franz diffusion was maintained at 37° C. in a water bath, to set up the skin temperature 32° C. (Maddock, W. G. and Coller, F. A., ([…]) The role of the extremities in the dissipation of heat, American Journal of Physiology-Legacy Content, 106(3), 589-596). After 1 h equilibration at 37° C. in the water bath, 1 mL of receiver fluid was taken at time points 0 in 30 min and a fresh 100% PG was replaced to keep the volume content, and 1 mL of each formulation was applied in the donor compartment. After 24 h, the receiver fluid was collected and analysed by HPLC methods.
At the end of the transport studies, the Franz cells were dismantled, and the donor solution was collected into bottles containing 10 mL of extraction fluid; PG:EtOH (50:50) for cholecalciferol and MeOH:water (90:10) for cholecalciferol phosphate, by wiping the surface of the skin and inside of the donor compartment with two wet and then two dry cotton buds. The SC was removed from the epidermis by tape stripping. A 300 mg weight was used onto the skin to press the adhesive tape to apply defined pressure for 10 sec. A piece of tape that can cover the diffusion area was used to remove the SC. The first two pieces of tape were added into the donor solution, as the first 2 strips were considered as part of the applied formulation and its removal was part of the formulation wash off (Primo, F. L. et al., (2008) In vitro studies of cutaneous retention of magnetic nanoemulsion loaded with zinc phthalocyanine for synergic use in skin cancer treatment, Journal of Magnetism and Magnetic Materials, 320(14), e211-e214.; Sheth, N. V. et al., (1987) Measurement of the stratum corneum drug reservoir to predict the therapeutic efficacy of topical iododeoxyuridine for herpes simplex virus infection. Journal of investigative dermatology, 89(6), 598-602). The next 20 pieces of tapes were added into bottles containing 10 mL of extraction fluid. The epidermis was removed from the dermis and cut into small pieces by scalpels, placed in bottles containing 2 mL of extraction fluid. Furthermore, the dermis was cut into small pieces and was placed in bottles containing 2 mL of extraction fluid. […]

physchem [3] = format: physicochemical; conditions: 22 °C, organic solvent or mixture, thermodynamic from solid, HPLC
Experimental: as §1
HPLC analysis was conducted using an HPLC system consisting of an auto-sample injector (Jasco AS-4050, Japan), a pump (Jasco PU-4180, Japan), and a photodiode array detector (Jasco MD-4017, Japan). The data was collected and analysed using the ChromNAV software. […]

Compound	solubility (physchem [1]; oil or lipid) [µg/mL]	% Recovery, drug extraction validation, Epidermis [2] [%]	total recovery from the skin permeation experiments (in vitro; pig, 24 h, 2.5 mg/mL) [%]	recovery at 24 h, 2.5 mg/mL (in vitro; pig, total recovery from the skin permeation experiments) [%]	total penetration into / deposited in the skin (in vitro; 2.5 mg/mL, 24 h) [μg/cm^2]	total penetration into the skin (in vitro; vehicle PG:EtOH (50:50), 24 h) [μg/cm^2]	deposition in the SC (in vitro; vehicle PG, 24 h) [μg/cm^2]	deposition in the epidermis (in vitro; vehicle PG, 24 h) [μg/cm^2]	transdermal penetration, passed all the way through the skin (in vitro; vehicle PG, 24 h)	solubility (physchem [1]; organic solvent or mixture) [µg/mL]	solubility (physchem [1]; water) [µg/mL]	solubility (physchem [3]) [µg/mL]	deposition in the dermis compared with cholecalciferol (in vitro)	deposited in the skin (in vitro; pig, 24 h, 2.5 mg/mL) [μg/cm^2]	deposition in the SC (in vitro; pig, 24 h, 2.5 mg/mL) [μg/cm^2]	deposition in the epidermis (in vitro; pig, 24 h, 2.5 mg/mL) [μg/cm^2]	skin deposition, times more than the cholecalciferol (in vitro; pig, 24 h, 2.5 mg/mL) [times]
C=C1CC[C@H](O)C/C1=C/C=C1\CCC[C@]2(C)[C@@H]([C@H](C)CCCC(C)C)CC[C@@H]12 [Cholecalciferol, cholecalciferol, reference compound]	> 25000	104.86 ± 0.54	80	61	96.51±17.88	80.63±13.23	1.79±1.80	40.13±24.26	did not pass through the tissue	–	–	–	–	–	–	–	–
C=C1CC[C@H](OP(=O)(O)O)C/C1=C/C=C1\CCC[C@@]2(C)C1CC[C@@H]2[C@H](C)CCCC(C)C (stereo partly shown) [Cholecalciferol phosphate disodium salt, cholecalciferol phosphate disodium salt]	–	–	–	–	189.99±29.10	–	–	–	50.50±6.40 μg/cm^2	< 2000	< 2500	3700	not statistically different	29.59±9.44	50.15±8.20	113.96±18.79	1.97
